Test results as given in patent US7566712B2, “Biaryl piperazinyl-pyridine analogues” (Neurogen Corporation, priority 2003, dated 2009).
Each block holds one compound with its values, some of them ahead of it.

Target: T1, human capsaicin receptor (Homo sapiens, UniProt Q8NER1)
T1 construct: pBK-CMV expression construct encoding the full length human capsaicin receptor; expressed in transfected cells
Assay: Calcium mobilization assay, determination of antagonist activity (Example 6)
Type: cell-based
Details: Table II
Method in brief: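 HEK293 clonal lines stably expressing full-length human capsaicin receptor, loaded with Fluo-3 AM in KRH buffer pH 7.4, 1–2 h at 37 °C. Compounds (1–5 μM final) preincubated 0.5–6 h at room temperature, then capsaicin at its EC50 added. FLIPR/Fluoroskan calcium signal; IC50 as 50% decrease of capsaicin response.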

[1] = IC50 determined as described in Example 6
[2] = determined as described in Example 6 (antagonist activity), "*" = 1 micromolar or less
[3] = determined as described in Example 6 (calcium mobilization, antagonist activity)
[4] = IC50 determined as described in Example 6 (antagonist activity, calcium mobilization)

T1 sequence (Q8NER1 whole entry): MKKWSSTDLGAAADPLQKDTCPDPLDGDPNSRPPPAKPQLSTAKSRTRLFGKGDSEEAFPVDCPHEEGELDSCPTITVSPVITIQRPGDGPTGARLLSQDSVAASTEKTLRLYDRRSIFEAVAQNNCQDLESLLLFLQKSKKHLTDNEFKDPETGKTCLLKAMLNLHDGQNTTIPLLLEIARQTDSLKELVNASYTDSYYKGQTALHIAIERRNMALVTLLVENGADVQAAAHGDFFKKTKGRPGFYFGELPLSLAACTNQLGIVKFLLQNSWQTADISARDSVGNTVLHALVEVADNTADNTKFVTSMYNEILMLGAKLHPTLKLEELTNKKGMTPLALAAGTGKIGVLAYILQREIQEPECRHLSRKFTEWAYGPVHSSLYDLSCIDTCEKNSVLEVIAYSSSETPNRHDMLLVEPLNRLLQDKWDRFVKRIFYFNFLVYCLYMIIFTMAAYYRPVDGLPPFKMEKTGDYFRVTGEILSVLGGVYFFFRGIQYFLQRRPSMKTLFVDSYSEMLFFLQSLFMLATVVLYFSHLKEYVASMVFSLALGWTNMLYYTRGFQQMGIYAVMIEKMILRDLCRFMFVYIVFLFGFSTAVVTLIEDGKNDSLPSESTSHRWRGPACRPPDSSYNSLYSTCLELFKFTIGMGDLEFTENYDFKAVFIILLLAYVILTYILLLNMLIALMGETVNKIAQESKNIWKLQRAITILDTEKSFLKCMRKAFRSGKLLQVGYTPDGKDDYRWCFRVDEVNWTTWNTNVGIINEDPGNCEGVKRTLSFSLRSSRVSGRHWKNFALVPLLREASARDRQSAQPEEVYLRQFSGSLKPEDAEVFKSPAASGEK

Compound: C[C@@H]1CN(c2ncccc2C(F)(F)F)CCN1c1cc(-c2cccc(OC(F)(F)F)c2)nc(N2CCOCC2)n1 [Example 534, 4-{4-{(2R)-2-methyl-4-[3-(trifluoromethyl)pyridin-2-yl]piperazin-1-yl}-6-[3-(trifluoromethoxy)phenyl]pyrimidin-2-yl}morpholine]
IC50 [1]: ≤ 1000 nM

Compound: CC1CCCN1c1nc(-c2ccc(F)c(F)c2)cc(N2CCN(c3ccncc3Cl)C[C@H]2C)n1 (some centres unmarked) [Example 828, 4-[4-(3-chloropyridin-4-yl)-2-methylpiperazin-1-yl]-6-(3,4-difluorophenyl)-2-(2-methylpyrrolidin-1-yl)pyrimidine]
IC50 [2]: ≤ 1000 nM

Compound: CCCN1CCC(c2nc(-c3ccc(F)c(Cl)c3)cc(N3CCN(c4ncccc4C(F)(F)F)CC3)n2)CC1 [Example 872, 4-(3-chloro-4-fluorophenyl)-2-(1-propylpiperidin-4-yl)-6-{4-[3-(trifluoromethyl)pyridin-2-yl]piperazin-1-yl}pyrimidine]
IC50 [2]: ≤ 1000 nM

Compound: C[C@H]1CN(c2nccnc2Cl)CCN1c1cc(-c2ccc(F)c(Cl)c2)nc(N2CCC[C@@H]2C)n1 [Example 987, 4-(3-chloro-4-fluorophenyl)-6-[(2S)-4-(3-chloropyrazin-2-yl)-2-methylpiperazin-1-yl]-2-[(2S)-2-methylpyrrolidin-1-yl]pyrimidine]
IC50 [4]: ≤ 1000 nM

Compound: CC1CCCCN1c1nc(-c2ccc(F)c(Cl)c2)cc(N2CCN(c3ncccc3C(F)(F)F)CC2)n1 (centres unmarked) [Example 611, 4-(3-chloro-4-fluorophenyl)-2-(2-methylpiperidin-1-yl)-6-{4-[3-(trifluoromethyl)pyridin-2-yl]piperazin-1-yl}pyrimidine]
IC50 [3]: ≤ 1000 nM

Compound: CCN(CC)c1nc(-c2cc(C)nc(C)c2)cc(N2CCN(c3ncccc3C(F)(F)F)CC2)n1 [Example 591, 4-(2,6-dimethylpyridin-4-yl)-N,N-diethyl-6-{4-[3-(trifluoromethyl)pyridin-2-yl]piperazin-1-yl}pyrimidin-2-amine]
IC50 [3]: ≤ 1000 nM

Compound: CC1CCCN1c1nc(-c2cncc(C#N)c2)cc(N2CCN(c3ncccc3C(F)(F)F)CC2)n1 (centres unmarked) [Example 887, 5-(2-(2-methylpyrrolidin-1-yl)-6-{4-[3-(trifluoromethyl)pyridin-2-yl]piperazin-1-yl}pyrimidin-4-yl)nicotinonitrile]
IC50 [2]: ≤ 1000 nM

Compound: CCN(CC)CCN(C)c1nc(-c2ccc(F)c(Cl)c2)cc(N2CCN(c3ncccc3C(F)(F)F)CC2)n1 [Example 566, N-1-(4-(3-chloro-4-fluorophenyl)-6-{4-[3-(trifluoromethyl)pyridin-2-yl]piperazin-1-yl}pyrimidin-2-yl)-N-2-,N-2-diethyl-N-1-methylethane-1,2-diamine]
IC50 [1]: ≤ 1000 nM

Compound: CN1CCCC(Oc2nc(-c3ccc(F)c(Cl)c3)cc(N3CCN(c4ncccc4C(F)(F)F)CC3)n2)C1 (centres unmarked) [Example 559, 4-(3-chloro-4-fluorophenyl)-2-[(1-methylpiperidin-3-yl)oxy]-6-{4-[3-(trifluoromethyl)pyridin-2-yl]piperazin-1-yl}pyrimidine]
IC50 [1]: ≤ 1000 nM

Compound: Nc1cccnc1N1CCN(c2cc(-c3ccc(F)c(Cl)c3)nc(N3CCOCC3)n2)CC1 [Example 587, 2-{4-[6-(3-chloro-4-fluorophenyl)-2-morpholin-4-ylpyrimidin-4-yl]piperazin-1-yl}pyridin-3-amine]
IC50 [3]: ≤ 1000 nM

Compound: C[C@@H]1CN(c2nccnc2Cl)CCN1c1nc(Cl)cc(-c2ccc(F)c(Cl)c2)n1 [Example 906, 4-chloro-6-(3-ohloro-4-fluorophenyl)-2-[4-(3-chloropyrazin-2-yl)-2-methylpiperazin-1-yl]pyrimidine]
IC50 [2]: ≤ 1000 nM

Compound: [O-][n+]1ccc(-c2nc(-c3ccc(F)c(Cl)c3)cc(N3CCN(c4ncccc4C(F)(F)F)CC3)n2)cc1 [Example 670]
IC50 [3]: ≤ 1000 nM

Compound: Cc1cc(-c2cc(N3CCN(c4ncccc4C(F)(F)F)CC3)nc(-n3c(C)ccc3C)n2)ccc1F [Example 877, 2-(2,5-dimethyl-1H-pyrrol-1-yl)-4-(4-fluoro-3-methylphenyl)-6-{4-[3-(trifluoromethyl)pyridin-2-yl]piperazin-1-yl}pyrimidine]
IC50 [2]: ≤ 1000 nM

Compound: Cc1cc(-c2cc(N3CCN(c4ncccc4C(F)(F)F)CC3)nc(N3CCNCC3)n2)ccc1F [Example 645, 4-(4-fluoro-3-methylphenyl)-2-piperazin-1-yl-6-{4-[3-(trifluoromethyl)pyridin-2-yl]piperazin-1-yl}pyrimidine]
IC50 [3]: ≤ 1000 nM

Compound: CN1CCC(N(C)c2nc(-c3ccc(F)c(Cl)c3)cc(N3CCN(c4ncccc4C(F)(F)F)CC3)n2)C1 (centres unmarked) [Example 564, 4-(3-chloro-4-fluorophenyl)-N-methyl-N-(1-methylpyrrolidin-3-yl)-6-{4-[3-(trifluoromethyl)pyridin-2-yl]piperazin-1-yl}pyrimidin-2-amine]
IC50 [1]: ≤ 1000 nM

Compound: Cc1ccc(C)c(-c2nc(N3CCOCC3)nc(N3CCN(c4ccccn4)CC3)n2)c1 [Example 269, 2-(2,5-dimethylphenyl)-4-morpholin-4-yl-6-(4-pyridin-2-ylpiperazin-1-yl)-1,3,5-triazine]
IC50 (determined as described in Example 6, class symbol): ≤ 1000 nM

Compound: Fc1ccc(-c2cc(N3CCN(c4ncccc4C(F)(F)F)CC3)nc(N3CCCCC3)n2)cc1Cl [Example 602, 4-(3-chloro-4-fluorophenyl)-2-piperidin-1-yl-6-{4-[3-(trifluoromethyl)pyridin-2-yl]piperazin-1-yl}pyrimidine]
IC50 [3]: ≤ 1000 nM

Compound: CSc1cccc(-c2cc(N3CCN(c4ncccc4C)C[C@H]3C)nc(N3CCOCC3)n2)c1 [Example 537, 4-{4-[(2R)-2-methyl-4-(3-methylpyridin-2-yl)piperazin-1-yl]-6-[3-(methylthio)phenyl]pyrimidin-2-yl}morpholine]
IC50 [1]: ≤ 1000 nM

Compound: COC[C@@H]1CCCN1c1nc(-c2ccc(F)c(C)c2)cc(N2CCN(c3ncccc3C(F)(F)F)C[C@H]2C)n1 [Example 760, 4-(4-fluoro-3-methylphenyl)-2-[(2S)-2-(methoxymethyl)pyrrolidin-1-yl]-6-{(2R)-2-methyl-4-[3-(trifluoromethyl)pyridin-2-yl]piperazin-1-yl}pyrimidine]
IC50 [3]: ≤ 1000 nM

Compound: Cc1cc(-c2cc(N3CCN(c4ncccc4C(F)(F)F)CC3)nc(N(C)C(C)CO)n2)ccc1F (centres unmarked) [Example 795]
IC50 [2]: ≤ 1000 nM

Compound: Cc1cccnc1N1CCN(c2cc(-c3ccc(F)c(Cl)c3)nc(N3CCCC3C)n2)CC1 (centres unmarked) [Example 695, 4-(3-chloro-4-fluorophenyl)-6-[4-(3-methylpyridin-2-yl)piperazin-1-yl]-2-(2-methylpyrrolidin-1-yl)pyrimidine]
IC50 [3]: ≤ 1000 nM

More lines, now with the values ahead:

IC50 [3]: ≤ 1000 nM
Compound: CC1CCCCN1c1nc(-c2ccc(F)c(F)c2)cc(N2CCN(c3ncccc3Cl)C[C@H]2C)n1 (stereo partly drawn) [Example 771, 4-[(2R)-4-(3-chloropyridin-2-yl)-2-methylpiperazin-1-yl]-6-(3,4-difluorophenyl)-2-(2-methylpiperidin-1-yl)pyrimidine]

IC50 [2]: ≤ 1000 nM
Compound: C[C@H]1CN(c2nccnc2Cl)CCN1c1cc(-c2ccc(F)c(F)c2)nc(N2CCCC2)n1 [Example 937, 4-[(2S)-4-(3-chloropyrazin-2-yl)-2-methylpiperazin-1-yl]-6-(3,4-difluorophenyl)-2-pyrrolidin-1-ylpyrimidine]

IC50 [2]: ≤ 1000 nM
Compound: C[C@@H]1CN(c2ncccc2Cl)CCN1c1cc(-c2ccc(F)cc2)nc(N2CCCC2)n1 (stereo in doubt) [Example 841, 4-[4-(3-chloropyridin-2-yl)-2-methylpiperazin-1-yl]-6-(4-fluorophenyl)-2-pyrrolidin-1-ylpyrimidine]

IC50 [4]: ≤ 1000 nM
Compound: C[C@@H]1CN(c2ncccc2Cl)CCN1c1cc(-c2ccc(F)c(Cl)c2)nc(N2CCC[C@@H]2C)n1 [Example 984, 4-(3-chloro-4-fluorophenyl)-6-[(2R)-4-(3-chloropyridin-2-yl)-2-methylpiperazin-1-yl]-2-[(2S)-2-methylpyrroiidin-1-yl]pyrimidine]

IC50 [4]: ≤ 1000 nM
Compound: CC1CCCN1c1nc(-c2ccc(F)cc2)cc(N2CCN(c3ncncc3Cl)C[C@H]2C)n1 (stereo partly drawn) [Example 1013, 4-[(2R)-4-(5-chloropyrimidin-4-yl)-2-methylpiperazin-1-yl]-6-(4-fluorophenyl)-2-(2-methylpyrrolidin-1-yl)pyrimidine]

IC50 [4]: ≤ 1000 nM
Compound: CC1CCCN1c1nc(-c2ccc(F)cc2)cc(N2CCN(c3nc(Cl)ccc3Cl)C[C@H]2C)n1 (some centres unmarked) [Example 1011, 4-[4-(3,6-dichloropyridin-2-yl)-2-methylpiperazin-1-yl]-6-(4-fluorophenyi)-2-(2-methylpyrrolidin-1-yl)pyrimidine]

IC50 [2]: ≤ 1000 nM
Compound: C[C@H]1CN(c2ncccc2Cl)CCN1c1cc(-c2ccc(F)c(Cl)c2)nc(Cl)n1 [Example 944, 2-chloro-4-(3-chloro-4-fluorophenyl)-6-[(2S)-4-(3-chloropyridin-2-yl)-2-methylpiperazin-1-yl]pyrimidine]

IC50 [3]: ≤ 1000 nM
Compound: Cc1cc(-c2cc(N3CCN(c4ncccc4C(F)(F)F)C[C@H]3C)nc(N3CCCCC3)n2)ccc1F [Example 759, 4-(4-fluoro-3-methylphenyl)-6-{(2R)-2-methyl-4-[3-(trifluoromethyl)pyridin-2-yl]piperazin-1-yl}-2-piperidin-1-ylpyrimidine]

IC50 [1]: ≤ 1000 nM
Compound: C[C@@H]1CN(c2ncccc2Cl)CCN1c1cc(-c2cccc(Cl)c2)nc(N2CCOCC2)n1 [Example 481, 4-{4-(3-chlorophenyl)-6-[(2R)-4-(3-chloropyridin-2-yl)-2-methylpiperazin-1-yl]pyrimidin-2-yl}morpholine]

IC50 [3]: ≤ 1000 nM
Compound: CC1CCCN1c1nc(-c2ccc(F)c(Cl)c2)cc(N2CCN(c3ncccc3Cl)CC2)n1 (centres unmarked) [Example 714, 4-(3-chloro-4-fluorophenyl)-6-[4-(3-chloropyridin-2-yl)piperazin-1-yl]2-(2-methylpyrrolidin-1-yl)pyrimidine]

IC50 [1]: ≤ 1000 nM
Compound: C[C@@H]1CN(c2ncccc2Cl)CCN1c1cc(-c2ccc(Cl)cc2)nc(N2CCOCC2)n1 [Example 485, 4-{4-(4-chlorophenyl)-6-[(2R)-4-(3-chloropyridin-2-yl)-2-methylpiperazin-1-yl]pyrimidin-2-yl}morpholine]
